Test results: patent US12256739B2, “Herbicidal mixtures comprising L-glufosinate or its salt and at least one protoporphyrinogen-IX oxidase inhibitor” (BASF SE, priority 2017, dated 2025)

How the values were obtained:
Test in all cases: Post emergence treatment, pot test, herbicidal activity
Assay type in all cases: in vivo
[1] = tested on: ERICA (Erigeron Canadensis, Conyza canadensis); details: scale from 0 to 100
Source text: (§1) Synergism can be described as an interaction where the combined effect of two or more compounds is greater than the sum of the individual effects of each of the compounds. The pres-ence of a synergistic effect in terms of percent control, between two mixing partners (X and Y) can be calculated using the Colby equation (Colby, S. R., 1967, Calculating Synergistic and Antagonistic Responses in Herbicide Combinations, Weeds, 15, 21-22):
(§2) When the observed combined control effect is greater than the expected (calculated) combined control effect (E), then the combined effect is synergistic.
(§3) However, the weed control afforded by the compounds, mixtures or compositions is not limited to these species. The analysis of synergism or antagonism between the mixtures or compositions was determined using Colby's equation.
(§4) The culture containers used were plastic flowerpots containing loamy sand with approximately 3.0% of humus as the substrate. The seeds of the test plants were sown separately for each species and/or resistant biotype. For the pre-emergence treatment, the active ingredients, which had been suspended or emulsified in water, were applied directly after sowing by means of finely distributing nozzles. The containers were irrigated gently to promote germination and growth and subsequently covered with transparent plastic hoods until the plants had rooted. This cover caused uniform germination of the test plants, unless this had been impaired by the active ingredients. For the post-emergence treatment, the test plants were first grown to a height of 3 to 15 cm, depending on the plant habit, and only then treated with the active ingredients which had been suspended or emulsified in water. For this purpose, the test plants were either sown directly and grown in the same containers, or they were first grown separately as seedlings and transplanted into the test containers a few days prior to treatment. Depending on the species, the plants were kept at 10-25° C. or 20-35° C., respectively. The test period extended to 20 days after treatment. During this time, the plants were tended, and their response to the individual treatments was evaluated. The evaluation was carried out by using a scale from 0 to 100. 100 means no emergence of the plants or complete destruction of at least the above-ground parts, and 0 means no damage, or normal course of growth. Data shown are the mean of two replications.
(§5) • L-Glufosinate: 5% EC formulation • Saflufenacil: 342 g/l SC formulation • Compound II-16: 5% EC formulation (Compound II-16: ethyl[3-[2-chloro-4-fluoro-5-(1-methyl-6-trifluoromethyl-2,4-dioxo-1,2,3,4-tetrahydropyrimidin-3-yl)phenoxy]-2-pyridyloxy]acetate) • Trifludimoxazin: 500 g/l SC formulation • Sulfentrazone: 480 g/l SC formulation

[2] = tested on: ECHCG (Echinochloa crus-galli)
Source text: as §1, §2, §3, §4, §5

CYPIR (Cyperus iria) = details: scale from 0 to 100
Source text: as §1, §2, §3, §4, §5

## Cc1nn(-c2cc(NS(C)(=O)=O)c(Cl)cc2Cl)c(=O)n1C(F)F [Sulfentrazone, sulfentrazone]
[1]; Sulfentrazone alone, 1.25 g ai/ha
  Herbicidal activity against ERICA, Found: 0
[1]; Sulfentrazone alone, 2.5 g ai/ha
  Herbicidal activity against ERICA, Found: 0

## CP(=O)(O)CC[C@H](N)C(=O)O [L-Glufosinate, (2S)-2-amino-4-[hydroxy(methyl)phosphinoyl]butyric acid]
[2]; L-Glufosinate alone, 200 g ai/ha, scale from 0 to 100
  Herbicidal activity against ECHCG, Found: 0
[2]; L-Glufosinate alone, 400 g ai/ha, scale from 0 to 100, mean of two replications
  Herbicidal activity against ECHCG, Found: 65
CYPIR (Cyperus iria); L-Glufosinate alone, 200 g ai/ha
  Herbicidal activity against CYPIR, Found: 0
[1]; L-Glufosinate alone, 75 g ai/ha
  Herbicidal activity against ERICA, Found: 90

## C#CCN1C(=O)C(F)(F)Oc2cc(F)c(-n3c(=O)n(C)c(=S)n(C)c3=O)cc21 [Trifludimoxazin, trifludimoxazin]
[2]; Trifludimoxazin alone, 0.25 g ai/ha, scale from 0 to 100
  Herbicidal activity against ECHCG, Found: 10

## CC(C)N(C)S(=O)(=O)NC(=O)c1cc(-n2c(=O)cc(C(F)(F)F)n(C)c2=O)c(F)cc1Cl [Saflufenacil, saflufenacil]
[2]; Saflufenacil alone, 0.5 g ai/ha, scale from 0 to 100
  Herbicidal activity against ECHCG, Found: 0

## CCOC(=O)COc1ncccc1Oc1cc(-n2c(=O)cc(C(F)(F)F)n(C)c2=O)c(F)cc1Cl [Compound II-16, ethyl[3-[2-chloro-4-fluoro-5-(1-methyl-6-trifluoromethyl-2,4-dioxo-1,2,3,4-tetrahydropyrimidin-3-yl)phenoxy]-2-pyridyloxy]acetate]
CYPIR (Cyperus iria); Compound II-16 alone, 0.25 g ai/ha
  Herbicidal activity against CYPIR, Found: 0
